Experimental data: patent publication US4631292A, “1,3-dioxane derivatives, method of their synthesis and anti-peptic ulcer agent” (Kotobuki Seiyaku Co., Ltd., priority 1983, dated 1986)

Legend:
[1] = system: aspirin-induced pylorus-ligated rats; experiment: Aspirin-induced ulcer in pylorus-ligated rats (method of S. Okabe); type: in vivo; details: oral dose 500 mg/kg
Protocol: (1) The effect of the compounds of the invention is examined by using aspirin-induced pylorus-ligated rats according to the methods of S. Okabe (Oyo-Yakuri 9 (1), 31-37 1975). The test compounds are given orally at a dose of 500 mg./kg.

[2] = system: ethanol induced ulcer; experiment: Ethanol induced ulcer (method of L. Robert, modified); type: in vivo; details: ethanol/HCl induced ulcer, rats; for ulcer index (mm): 30 min before ethanol, 1 hour after ethanol
Protocol: (2) The effect on ethanol induced ulcer is examined according to the method of L. Robert (Gastroenterology 77,433-443, 1979) with some modification. Rats are fasted for 24 hrs. and after 30 min. of the oral test drug administration, 1 ml. of 60% ethanol of 150 mM hydrochloric acid solution is given.
Exactly 1 hour later, the animals are sacrificed and the stomach is removed to examine their ulcer index.

CC(C)=CCCC1OCCC(C)O1 (centres unmarked) [Compound 1, 2-(4-methyl-3-pentene)-6-methyl-1,3-dioxane]
% inhibition [1]: 50.6%
ulcer index (mm) ± S.E. [1]: 11.0 ± 2.98 mm

CC(C)=CCCC(C)CC1OCCC(C)O1 (centres unmarked) [Compound 2, 2-(2,6-dimethyl-5-heptene)-6-methyl-1,3-dioxane]
% inhibition [1]: 35.9%
ulcer index (mm) ± S.E. [1]: 27.8 ± 7.1 mm

CC(C)=CCCC1(C)OCCC(C)O1 (centres unmarked) [Compound 5, 2-(4-methyl-3-pentenyl)-2-methyl-4-methyl-1,3-dioxane]
% inhibition [1]: 88.1%
ulcer index (mm) ± S.E. [1]: 2.2 ± 0.8 mm
% inhibition ([2]; oral dose 100 mg/kg): 59.7%
ulcer index (mm) ([2]; oral dose 100 mg/kg): 27.1 ± 7.3 mm
% inhibition ([2]; oral dose 500 mg/kg): 95.1%
ulcer index (mm) ([2]; oral dose 500 mg/kg): 3.3 ± 1.2 mm

CC1CCC(C(C)C)C2(C1)OCCC(C)O2 (centres unmarked) [Compound 6, spiro[2isopropyl-5-methyl-cyclohexane-1,2'-4'-methyl 1',3']dioxane]
% inhibition [1]: 53.9%
ulcer index (mm) ± S.E. [1]: 10.3 ± 4.16 mm

CC(C)=CCCC1(C)OC(C)CC(C)O1 (centres unmarked) [Compound 11, 2-(4-methyl-3-pentenyl)-2-methyl-4,6-dimethyl-1,3-dioxane]
% inhibition [1]: 33.7%
ulcer index (mm) ± S.E. [1]: 14.5 ± 5.12 mm
